Test system: prostate
Test: Photodynamic therapy of the canine prostate after intraprostatic injection of QLT0074 and transurethral 690 nm light
Assay type: in vivo, dogs
Protocol: Eight mature, intact, mixed-breed dogs were premedicated with butorphanol (0.4 mg per kilogram of body weight), acepromazine (0.1 mg/kg), and atropine (0.4 mg/kg), all given by intramuscular injection. Anesthesia was induced with intravenous thiopental sodium (8 mg per 0.4536 kilograms of body weight) and maintained with inhaled isoflurane and oxygen (dosage as required for anesthetic effect). QLT0074 for injection (A-EA6 in U.S. Pat. No. 5,929,105) was reconstituted with Water for Injection to give a stock concentration of 2.0 mg/ml and then diluted with 5% Dextrose in water to a concentration 0.2 mg/ml. Injections of the drug were then delivered to the prostate using a commercially available transurethral injection device (InjecTx™, San Jose, Calif., USA). Two injections of 0.5 ml were given to each left lobe of the prostate and 2 injections of 1.0 ml were given to each right lobe of the prostate. The activation-energy delivery device used comprised: • a cylindrical fibre optic with a 200 μm diameter core, a 25 mm long diffuser, and a power rating of 175 mW/cm (maximum power load, 437.5 mW), • a reflective-cap fibre-centering balloon catheter with a 20 mm treatment window supplied with a guidewire for positioning the device in the urethra, and • a 3 W 690 nm red-light diode laser (AOC, South Plainfield, N.J., USA). The treatment assembly was positioned in the urethra using ultrasonic guidance. Ultrasound was also used to position the needles for four […] intraprostatic injections (two per lobe separated by longitudinally by 1 cm). Each injection was at a depth of between 8 and 12 mm into the prostate. The activation energy was delivered 15 minutes after the last injection. A dose of either 25 J/cm^2, 50 J/cm^2, or 100 J/cm^2 was delivered. […] After seven days the dogs were euthanased and the prostates were harvested.

[1] = prostates harvested after seven days, QLT0074 0.2 mg/ml intraprostatic, injection depth 8-12 mm, 25, 50 or 100 J/cm^2

Bowel, bladder, and prostate sizes (dogs euthanased after seven days, QLT0074 0.2 mg/ml intraprostatic, 25, 50 or 100 J/cm^2): within normal ranges | Clinical appearance of the dogs during observation (mature intact mixed-breed dogs, QLT0074 0.2 mg/ml, 2 x 0.5 ml left lobe and 2 x 1.0 ml right lobe, 690 nm light 25, 50 or 100 J/cm^2 15 minutes after last injection, observed for one week): clinically normal
Compound: C=Cc1c(C)c2cc3nc(cc4[nH]c(cc5nc(cc1[nH]2)C(C)=C5CCC(=O)OCCO)c(CCC(=O)OCCO)c4C)[C@@]1(C)C3=CC=C(C(=O)OC)[C@H]1C(=O)OC [QLT0074, Lemuteporfin]
PDT-associated damage in the urethra [1]: no significant PDT-associated damage | PDT-associated tissue damage in the target tissue (prostates) [1]: evidence of PDT-associated tissue damage in the target tissue
